# Data: patent US20030133908A1, “Treatment for intracranial tumors” (priority 2002, published 2003)
# Legend:
# RG2 glioma cells = test: Microglia-mediated tumor cytotoxicity on co-cultured RG2 cells (modified MTT reduction assay); assay type: cell-based, rat; details: L-NMA exposure
# Procedure: Co-cultures of microglia and RG2 cells were established and cytotoxicity assays were carried out as follows: isolated rat microglial cells (5×10^5 cells/well) were added to a 96-well plate containing 200 μl/well of complete medium. After allowing the cells to adhere for one hour, the medium was aspirated and the appropriate number of RG2 cells (from 2.5×10^4 to 1×10^6 to yield effector:target [E:T] ratios from 0.5:1 to 20:1) was added to the wells in 200 μl of fresh, complete medium. As controls, glioma cells and microglia were cultured separately in other wells of the plate. Microglia-mediated tumor cytotoxicity was measured using a modified MTT reduction assay.
# All experiments were performed in quadruplicate. Some co-culture experiments were carried out on glass cover slips to provide visual documentation of cytotoxicity. The cover slips were immersed in paraformaldehyde solution and then subjected to cresyl violet staining.
# To determine the contributions of TNF-α and NO to the tumoricidal activity of microglia, MTT cytotoxicity assays were carried out in the presence of TNF-α binding protein (TNF-bp; an inhibitor of TNF-α) and N^G-monomethyl-L-arginine (L-NMA; an inhibitor of NO production).
# The effects of TGF-β on microglial tumor cytotoxicity were also investigated in MTT cytotoxicity assays in the presence of TGF-β.
# rat microglia [1] = test: Nitric oxide (nitrite) production by cultured rat microglia (Griess reaction); assay type: cell-based; details: in the presence of TGF-β
# Procedure: (§1) The ability of cultured rat microglia to produce the soluble cytotoxic agents, TNF-αand nitric oxide, was examined. Rat microglia were harvested and plated in a 96-well plate at a density of 5×10^5 cells/well in 200 μl of serum-free CellGro complete medium (MediaTech, Inc.). In some wells, the medium was supplemented with different concentrations of LPS alone (from E. coli serotype […]; Sigma) while others were supplemented with a combination of LPS and recombinant rat IFN-γ (100 U/ml; R&D Systems). After 24 hours of incubation at 37° C., TNF-α protein in the supernatant of each well was quantified using a Cytoscreen rat-specific TNF-α ELISA kit (Biosource Intl., Camarillo, Calif.), and NO (nitrite) levels in the supernatant of each well were determined using the Griess reaction. All experiments were carried out in triplicate.
# rat microglia [2] = test: TNF-α production by cultured rat microglia (rat-specific TNF-α ELISA); assay type: cell-based; details: in the presence of TGF-β
# Procedure: as §1
Compound,killing of co-cultured RG2 by LPS/IFN-γ stimulated microglia (RG2 glioma cells),microglial production of NO (rat microglia [1]),microglial production of TNF-α (rat microglia [2])
"CNC(=N)NCCC[C@H](N)C(=O)O [L-NMA, N^G-monomethyl-L-arginine]",significantly inhibited,–,–
TGF-β,–,concurrent decreases,concurrent decreases
